experiment: Human HepG2 cell viability assay in 384 well format; type: toxicity, cell-based; parameters: dose 125 nL, time 70.5 hour; concentration not given beside the values; conditions: HepG2 cells, read-out: Inhibition

Compound | cytotoxicity at 70.5 h
Cc1csc2ncnc(N3CCCC(Cn4cc(C(C)(C)O)nn4)C3)c12 (stereo not drawn) | -6.36%
CCc1nnsc1C(=O)NCCC1CN(C(C)C)CCO1 (stereo not drawn) | -7.17%
CCCc1nc(N2Cc3cnn(Cc4ccc(F)cc4)c3C2)no1 | -12.8%
CN1C[C@@H]2CN(C(=O)NCc3ccccc3)CCC[C@]2(C(=O)O)C1 | -1.78%
Cc1csc(CNC(=O)Nc2cc(C(F)(F)F)c[nH]c2=O)n1 | -5.01%
CC(C)CN1CCC2(CC(C(=O)NCc3cccnc3)=NO2)C1 (stereo not drawn) | -5.8%
CCOCCC(=O)NC(c1noc(C)n1)c1ccccc1F (stereo not drawn) | -7.31%
O=C(C1CCOCC1)N1CCO[C@H]2[C@H](OCc3ccncc3)CC[C@@H]21 | -9.92%
CN(Cc1ccc(F)cc1F)Cc1cc2c(cc1Br)OCCO2 | -6.67%
Cc1ccc(Nc2nccc(C3CCN(C(=O)CN)C3)n2)nc1 (stereo not drawn) | -5.12%
CC(NC(=O)CSCC#N)c1cccc(Cl)c1 (stereo not drawn) | -9.11%
N#CCCNC(=O)c1ccn(-c2ccc3ccccn23)n1 | -7.72%
Fc1cnc(N2CC[C@@H]3O[C@H](COCc4ccccn4)CC[C@@H]32)nc1 | -3.08%
Cc1ccc(CN2CCCC(c3nnc(CN4CCCC4)n3C)C2)s1 (stereo not drawn) | -0.483%
CC(C)Cn1cncc1-c1nc2c([nH]1)CC(C)(C)CNC2=O | 4.26%
c1ccc2c(c1)CC(Cc1cc(N3CCCC3)cnn1)CO2 (stereo not drawn) | -7.55%
Cc1noc(C)c1C(=O)NCCN1CCN(S(C)(=O)=O)CC1 | -1.17%
NC(=O)C1=NC2=NS(=O)(=O)c3ccccc3N2N1Cc1ccc(Cl)cc1 | 1.74%
O=C(NCc1nnc2ccccn12)N1CCOC(c2cccs2)C1 (stereo not drawn) | -8.39%
c1csc(CN2CCn3c(Cn4cncn4)cnc3C2)c1 | 27.5%
Cc1nn(C)c(Cl)c1C1CCCN1Cc1nc(-c2ccco2)no1 (stereo not drawn) | -6.17%
Cc1noc(C)c1CN1CC[C@@H](OCC2CC2)[C@@H](Cc2ccccc2)C1 | -4.91%
Cc1nn(CCC#N)c(C)c1CCC(=O)N(C)Cc1ccsc1 | -8.77%

Compound | cytotoxicity at 70.5 h
COCC1(C(=O)N[C@H]2CN(c3nnc(C)s3)C[C@@H]2C2CC2)CCC1 | 7.64%
CNC(=O)N1CCC2(COCc3c(C)nc(NCc4ccco4)nc32)C1 (stereo not drawn) | -6.98%
CCN1CCOCC2(CCCN(c3nncs3)C2)C1 (stereo not drawn) | -2.2%
COCc1cc(CC2(NC3CCN(C)CC3)COC2)no1 | 6.14%
CCN1CCC2(CCC1=O)CN(c1nccc(N)n1)CCN2C (stereo not drawn) | -4.72%
O=c1[nH]c(N2CCCCC2)nc2nccc(-c3ccc4c(c3)OCO4)c12 | -12.9%
CC(=O)N1CCC2(CC1)CNc1c(F)cccc12 | -6.53%
COc1cccc2cc(CNC(C)(C)C(=O)N3CCC(O)CC3)oc12 | 14.1%
COc1ccccc1CCNS(=O)(=O)N1CCOCC1 | -11.8%
Nc1ncccc1CN1C[C@H]2OC(=O)N(Cc3ccccn3)[C@H]2C1 | -3.5%
Cc1cc(C)c2c(OCC(=O)NC(C)C)nn(C)c2n1 | 14.7%
Cc1ccc(CN2CCCC3(CCCC(=O)N3C)C2)s1 (stereo not drawn) | -9.33%
Cc1cc(C)n2cc(CN3CCC(N4CCN(C)C4=O)CC3)nc2n1 | -0.599%
CC(C)COC(C)C(=O)NCc1cc(F)cc(F)c1 (stereo not drawn) | -13.3%
O=C(Cc1ccccc1Cl)Nc1cnn(C2CCOC2)c1 (stereo not drawn) | -14%
Cn1ncc2c(N3CCS(=O)(=O)CC3)nc(-c3cccnc3)nc21 | 6.33%
OCCN1CCN(CCOCC(F)(F)F)CC1 | 10.9%
CC1CCN(CCNC(=O)c2cncnc2C(C)C)CC1 | -5.55%
CCc1nnc(CN(C)C(=O)C(CC)n2c(CC)nc3ccccc32)o1 (stereo not drawn) | 3.98%
Cc1ccccc1CNC(=O)N1C[C@H]2C[C@H](C(=O)N3CCCC3)[C@@H](C1)O2 | -3.56%
CCS(=O)(=O)N1CCc2c(CN(C)Cc3ccco3)cncc2C1 | -6.14%
O=C1CO[C@H]2CN(Cc3cccc4[nH]ccc34)C[C@@H]2N1C1CCOCC1 | 5.48%
CCC(c1ccccc1)N1CCN(CCO)CC1 (stereo not drawn) | -6.76%

Compound | cytotoxicity at 70.5 h
c1cnn(CCNCc2cnc(N3CCOCC3)nc2)c1 | 41.2%
Fc1cccnc1Oc1cc(F)c(CN2CCCC2)c(Cl)c1 | 22.4%
Cc1ncoc1C(=O)N1CCn2c(COc3cccnc3)cnc2C1C (stereo not drawn) | 17.8%
NC(=O)CN1CCCC(C(=O)N2CCC(Oc3ncccn3)CC2)C1 (stereo not drawn) | -2.67%
CCc1oc(C(=O)N2CC[C@H]3CC[C@@H](C2)N3)cc1CN(CC)CC | -8.75%
CC(C)(C)CC(=O)NS(=O)(=O)c1ccc(F)cc1C(F)(F)F | -1.73%
Cc1nc(O)c2nnn(C[C@H]3CCCN3C(=O)C3CCCC3)c2n1 | -4.22%
CC(C)(C)OC(=O)NC(C)(C(N)=O)c1cccc(Cl)c1 (stereo not drawn) | 25.4%
O=C1CC(NS(=O)(=O)c2cccc(F)c2)CN1 (stereo not drawn) | 5.76%
CNC(=O)C1(CCCc2ccccn2)CN(Cc2scnc2C)C1 | 27.6%
Cc1nccn1Cc1nnc(C2CCCN(c3ncccn3)C2)n1C (stereo not drawn) | 15.5%
Cc1cc(C#N)ccc1S(=O)(=O)NCc1cnc(N(C)C)n1C | -5.78%
CC(C)c1ccc(CCC(=O)N(C)C2CCN(C)C2=O)cc1 (stereo not drawn) | -1.43%
Cc1cnn(CC2CCCN2C(=O)c2ccc(C(N)=O)cn2)c1 (stereo not drawn) | -10.6%
COCC(C)N1CCc2onc(-c3ccc(F)c(F)c3)c2C1 (stereo not drawn) | -1.71%
CCC(CC)c1cc(CNC(=O)N2CCCN(C(C)=O)CC2)on1 | -3.25%
N#Cc1cccc(CN2C(=O)C3(CCNCC3)Nc3ccccc32)c1 | 13.4%
CC(C)c1nccc(CN2CCC(c3nc4ccccc4n3C)CC2)n1 | -20.5%
CC(C)CN1CCC2(CCN(CC3CC3)CC2)C1=O | -8.5%
Cc1noc(CN(C)CC2CCCN(CCc3ccc(Cl)cc3)C2)n1 (stereo not drawn) | -11.4%
CN(C)c1cc(C(=O)N2CCCCC2Cn2cccn2)ccn1 (stereo not drawn) | -1.9%
CN(CCCOc1ccccc1Cl)C(=O)CN1CCCCCC1=O | -0.255%
O=C(Cc1cccc(F)c1)N1CCN2C[C@H](Oc3cncnc3)C[C@H]2C1 | -2.68%

Compound | cytotoxicity at 70.5 h
Cc1nc(-c2ccc(Cl)s2)sc1C(=O)NCCS(N)(=O)=O | -13.2%
CN(C)c1nc(NCc2cccnc2N)ncc1F | 0.515%
c1c[nH]c(CN2CCC3(CC2)COCCN(CCN2CCCC2)C3)c1 | -10.3%
Cc1cccc(CN2CC[C@@H]3[C@@H]2CCN3C(=O)c2cnoc2C)n1 | 0.0209%
COc1ccc(C2CC(=O)Nc3nc(N4CCOCC4)sc32)cc1 (stereo not drawn) | -6.38%
O=C(c1ccncc1F)N1CC[C@@H]2CN(c3ncccn3)CCO[C@@H]2C1 | -11.2%
CC(C)n1cnc2ccc(NC(=O)CCCn3cccn3)cc2c1=O | 21.7%
CN(C)c1ccc(C(=O)N2CCCC(n3cccn3)C2)cn1 (stereo not drawn) | 15%
COc1ccc(OCc2nc3cc4c(cc3c(=O)o2)OCCCO4)cc1 | -5.23%
COCCN1CCOCC12CCN(C(=O)c1cccnc1)CC2 | -8.13%
COCCN1CCC(CN(C)c2ncnc3c2c(C)nn3C)C1 (stereo not drawn) | 6.13%
COc1ccc(NC(=O)N2CCN(c3ncccn3)CC2)cn1 | -5.14%
Cc1cc(C)n(Cc2ccc(-c3noc(C(=O)NCCO)n3)cc2)n1 | -18.6%
COCC(=O)N1CCN(C(=O)C2(c3ccc(C)c(OC)c3)CC2)CC1 | -2.36%
O=C(c1cccs1)N1CCc2ncnc(C3CCOC3)c2CC1 (stereo not drawn) | -14.6%
CCc1ccsc1C(=O)N1CCN(CCN2C(=O)CCC2=O)CC1 | -3.69%
CCN(Cc1cccc(-c2ccncc2)c1)S(N)(=O)=O | -2.79%
O=C(c1ccccc1)N1CC(C(=O)N2CCOCC2)C2(CCOCC2)C1 (stereo not drawn) | 7.01%
Cc1cc(NC(=O)Cn2ccc(-c3ccc4c(c3)OCO4)n2)n(C)n1 | -13.2%
Cc1nn(C)c(C)c1C1CCCN1Cc1cccc(OCC(N)=O)c1 (stereo not drawn) | -7.47%
CNC(=O)NC(=O)CN1CCCN(CC(F)(F)F)CC1 | -7.82%
O=C1CCCN1CCc1noc(-c2ccc(Cl)cc2)n1 | -10.6%
CN(Cc1cccc(F)c1)C(=O)c1ccncc1Cl | -18.9%

Compound | cytotoxicity at 70.5 h
Cc1ccccc1-n1ncc(C(=O)N2CCCC2c2cnn(C)c2)c1C (stereo not drawn) | -13.6%
Cc1[nH]c2ccccc2c1-c1ccnc(NC[C@H](O)CO)n1 | 26.8%
O=C1CCC(c2ccccc2)(c2ccccc2)CN1CCO | -3.47%
Cc1csc(C2CCCN(C(=O)c3cnc4n[nH]c(C)c4c3)C2)n1 (stereo not drawn) | -10.8%
CC[C@H](C)[C@@H](CO)NC(C)Cc1ccccc1F (stereo partly drawn) | -2.57%
CNC(=O)NC(=O)CN1CCN(CC2CC2)c2ccccc21 | 1.66%
O=C(c1coc(COc2ccccc2F)n1)N1CCCO1 | -6.81%
CC(O)CN1CCN(C(=O)c2ccn(-c3ccccc3Cl)n2)CC1 (stereo not drawn) | -2.57%
Cc1cccc(-n2nc(CC(C)C)nc2CCC(=O)N(C)C)c1 | 0.846%
Cc1nc(CN2CCN(C(=O)COCc3ccccc3)CC2)no1 | -9.26%
Cc1c(CC(C#N)C(=O)Nc2cccc(O)c2)cnn1C (stereo not drawn) | -12.8%
Cc1cnn(C2CN(CC(=O)NCC3(c4ccccc4)CC3)C2)c1 | -6.95%
O=C1CCC2(CCCN(C(=O)c3ccco3)CC2)N1 (stereo not drawn) | -3.81%
COCC(=O)N1CCC(C(=O)c2cc(C)cnc2N)CC1 | -1.24%
COCc1ccccc1CNC(=O)CNc1cccc(Cl)c1OC | -2.8%
Cc1cnn(CC2CN(Cc3nnc(C4CC4)o3)CCO2)c1 (stereo not drawn) | -5.68%
CCC(CC)C(=O)NCc1cn2cc(Br)ccc2n1 | -8.77%
Cc1nnc2n1CCN(C(=O)c1cc(Cl)c[nH]1)C2 | -6.67%
COCCN1CCc2cc(C(=O)N(C)C)c(NC(C)C)nc2CC1 | -8.98%
CN(C)C(=O)CN1C(=O)CCC12CCN(Cc1ccsc1)CC2 | -15.7%
CCc1nc(N2CCC3(CC2)CC(=O)N(Cc2ccc(Cl)cc2)C3)no1 | -10.7%

Source: ChEMBL document CHEMBL3507680, “University of Dundee, Gates Library screen for HepG2 cell viability”
